What was measured:
[1] = target: NMDAR2B (Homo sapiens, UniProt Q13224); test: Potentiation of [3H]MK-801 binding, NMDAR2B; parameters: species or system rat; settings: NMDAR2B binding profile; for % 1 mM Glycine: relative to 1 mM glycine
[2] = target: NMDAR2A (Homo sapiens, UniProt Q12879); test: Potentiation of [3H]MK-801 binding, NMDAR2A; parameters: species or system rat; settings: NMDAR2A binding profile; for % 1 mM Glycine: relative to 1 mM glycine
Experimental: (§1) Assays were conducted as described by Moskal et al., “GLYX-13: a monoclonal antibody-derived peptide that acts as an N-rnethyl-D-aspartate receptor modulator,” Neuropharmacology, 49, 1077-87, 2005. The potentiation of [^3H]MK-801 binding (5 nrM; 22.5 Ci/mmol) to well washed rat cortical membranes (200 μg) was measured under non-equilibrium conditions (15 min @ 25° C.) in the presence of increasing concentrations of Compound A.
(§2) Assays were conducted as described above in Example 5, by Moskal et al. (2005).

[3] = target: NMDAR2D (Homo sapiens, UniProt O15399); test: Potentiation of [3H]MK-801 binding, NMDAR2D; parameters: species or system rat; settings: NMDAR2D binding profile; for % 1 mM Glycine: relative to 1 mM glycine
Experimental: as §1, §2

[4] = target: NMDAR2C (Homo sapiens, UniProt Q14957); test: Potentiation of [3H]MK-801 binding, NMDAR2C; parameters: species or system rat; settings: NMDAR2C binding profile; for % 1 mM Glycine: relative to 1 mM glycine
[5] = system: Sprague Dawley rats; test: Bennett model of mechanical analgesia (paw withdrawal threshold); assay type: in vivo, rat; settings: 150 mg/kg PO; tested 1 h, 24 hrs and 1 week post-dosing
Experimental: Bennett G J, Xie Y K, “A peripheral mononeuropathy in rat that produces disorders of pain sensation like those seen in man,” Pain 33:87-107, 1988. […] Vehicle animals receive the surgery and then receive vehicle rather than test compound. Animals were tested 1 hr, 24 h and 1 wk post-test compound or vehicle administration.
Male 2-3 month old Sprague Dawley rats were used. Harlan was the supplier for all studies. Rats were housed in Lucite cages with aspen wood chip bedding, maintained on a 12:12 light:dark cycle (lights on at 5 AM), and given ad libitum access to Purina lab chow (USA) and tap water throughout the study.
Rats were anesthetized using inhaled isoflurane (2.5%). Spared nerve injury surgery was performed as previously described (Bennett and Xie, 1988). An incision (˜1.5 cm in length) was made with a scalpel blade dorsally through skin on the right hindlimb, parallel and posterior to femur. Using a small pointed hemostat, the biceps femoris and gluteus superficialis muscles were separated. Using curved blunt forceps, the common sciatic nerve was isolated and exposed. For the mechanical analgesia studies, the whole sciatic nerve was ligated. Using hemostats/forceps and chromic gut (5-0), the nerve was loosely ligated with a square knot; 3 ligatures, 1 mm apart were placed on the nerve. […] For the thermal analgesia studies, the common peroneal and tibial branches of the sciatic nerve were ligated and cut, and the sural branch was spared. See Decosterd I, Woolf C J, “Spared nerve injury: an animal model of persistent peripheral neuropathic pain,” Pain 87:149-158, 2000. Testing occurred 1-2 weeks post-surgery.
During testing, rats were acclimated to the surface of a suspended wire mesh grid (1 cm×1 cm, with the wire being 0.3 cm in diameter) for 15-20 min. Starting from the smallest, each Von Frey filament was pressed perpendicularly to the plantar surface of the affected (ipsilateral) hindpaw until slightly bent and then held for 6 second. […]

NMDAR2A, sequence (Q12879 23-1464, species assumed, other chains not shown): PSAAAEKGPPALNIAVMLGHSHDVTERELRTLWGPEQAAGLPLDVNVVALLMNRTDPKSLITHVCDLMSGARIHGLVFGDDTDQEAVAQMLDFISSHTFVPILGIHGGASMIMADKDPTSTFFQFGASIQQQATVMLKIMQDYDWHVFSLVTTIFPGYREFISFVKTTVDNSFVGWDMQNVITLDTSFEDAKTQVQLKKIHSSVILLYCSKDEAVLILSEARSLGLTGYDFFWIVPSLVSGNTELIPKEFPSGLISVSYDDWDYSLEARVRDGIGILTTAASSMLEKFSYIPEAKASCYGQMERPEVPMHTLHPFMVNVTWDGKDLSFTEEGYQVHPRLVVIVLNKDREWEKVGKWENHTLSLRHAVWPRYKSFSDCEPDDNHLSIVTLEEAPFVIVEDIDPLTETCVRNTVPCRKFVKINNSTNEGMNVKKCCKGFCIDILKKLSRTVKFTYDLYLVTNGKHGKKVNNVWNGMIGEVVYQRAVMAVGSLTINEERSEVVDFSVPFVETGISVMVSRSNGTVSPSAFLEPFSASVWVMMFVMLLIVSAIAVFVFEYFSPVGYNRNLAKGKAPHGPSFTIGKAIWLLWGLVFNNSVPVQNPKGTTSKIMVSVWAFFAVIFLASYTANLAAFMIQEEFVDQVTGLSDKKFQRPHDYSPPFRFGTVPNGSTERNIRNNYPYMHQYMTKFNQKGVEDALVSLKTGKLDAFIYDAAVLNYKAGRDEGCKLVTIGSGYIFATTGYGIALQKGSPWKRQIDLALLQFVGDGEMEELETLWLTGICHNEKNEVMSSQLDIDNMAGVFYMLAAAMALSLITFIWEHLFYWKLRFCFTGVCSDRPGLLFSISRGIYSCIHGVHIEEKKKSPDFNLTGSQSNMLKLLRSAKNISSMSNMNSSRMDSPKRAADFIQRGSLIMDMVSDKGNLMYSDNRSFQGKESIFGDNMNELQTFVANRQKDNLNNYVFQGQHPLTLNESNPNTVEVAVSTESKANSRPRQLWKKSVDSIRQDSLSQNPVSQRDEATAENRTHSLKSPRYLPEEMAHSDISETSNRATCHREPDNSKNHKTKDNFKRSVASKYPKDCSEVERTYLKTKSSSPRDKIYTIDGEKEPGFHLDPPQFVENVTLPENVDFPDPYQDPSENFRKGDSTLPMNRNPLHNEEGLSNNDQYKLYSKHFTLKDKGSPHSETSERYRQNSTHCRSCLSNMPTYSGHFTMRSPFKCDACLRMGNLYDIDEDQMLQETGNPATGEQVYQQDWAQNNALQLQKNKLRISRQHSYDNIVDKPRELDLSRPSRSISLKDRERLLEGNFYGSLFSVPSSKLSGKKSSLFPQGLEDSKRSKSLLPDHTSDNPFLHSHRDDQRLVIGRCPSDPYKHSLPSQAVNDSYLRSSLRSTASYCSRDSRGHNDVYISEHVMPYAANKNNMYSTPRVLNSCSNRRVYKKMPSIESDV
NMDAR2C, sequence (Q14957 20-1233, species assumed, other chains not shown): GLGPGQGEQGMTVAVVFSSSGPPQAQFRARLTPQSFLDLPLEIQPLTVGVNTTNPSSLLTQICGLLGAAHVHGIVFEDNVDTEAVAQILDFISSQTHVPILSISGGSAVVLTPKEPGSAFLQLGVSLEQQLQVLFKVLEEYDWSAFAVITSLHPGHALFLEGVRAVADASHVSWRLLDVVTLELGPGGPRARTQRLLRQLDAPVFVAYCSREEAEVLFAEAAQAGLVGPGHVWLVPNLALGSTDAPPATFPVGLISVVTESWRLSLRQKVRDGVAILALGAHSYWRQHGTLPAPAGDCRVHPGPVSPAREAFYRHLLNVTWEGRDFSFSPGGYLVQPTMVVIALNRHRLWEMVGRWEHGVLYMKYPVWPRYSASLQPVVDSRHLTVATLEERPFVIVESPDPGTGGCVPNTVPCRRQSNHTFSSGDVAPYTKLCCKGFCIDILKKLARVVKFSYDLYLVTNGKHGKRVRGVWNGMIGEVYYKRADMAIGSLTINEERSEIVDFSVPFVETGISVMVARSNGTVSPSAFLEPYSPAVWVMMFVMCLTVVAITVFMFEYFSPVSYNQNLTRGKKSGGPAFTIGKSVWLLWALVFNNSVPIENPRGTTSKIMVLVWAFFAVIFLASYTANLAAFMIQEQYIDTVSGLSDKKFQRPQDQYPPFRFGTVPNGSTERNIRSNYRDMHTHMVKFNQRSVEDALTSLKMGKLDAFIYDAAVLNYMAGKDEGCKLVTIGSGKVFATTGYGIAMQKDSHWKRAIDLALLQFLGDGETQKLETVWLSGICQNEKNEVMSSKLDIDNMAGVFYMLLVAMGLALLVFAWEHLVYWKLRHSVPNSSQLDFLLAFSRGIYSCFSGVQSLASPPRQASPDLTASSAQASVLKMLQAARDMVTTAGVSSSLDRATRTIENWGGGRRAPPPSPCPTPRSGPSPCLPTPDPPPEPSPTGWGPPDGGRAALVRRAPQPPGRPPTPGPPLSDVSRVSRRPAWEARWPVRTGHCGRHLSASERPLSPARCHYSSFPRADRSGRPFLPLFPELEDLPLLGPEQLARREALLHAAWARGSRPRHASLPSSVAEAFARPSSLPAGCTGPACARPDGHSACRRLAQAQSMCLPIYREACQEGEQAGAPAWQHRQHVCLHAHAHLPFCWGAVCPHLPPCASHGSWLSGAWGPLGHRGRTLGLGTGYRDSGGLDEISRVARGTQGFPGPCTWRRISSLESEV
NMDAR2B, sequence (Q13224 27-1484, species assumed, other chains not shown): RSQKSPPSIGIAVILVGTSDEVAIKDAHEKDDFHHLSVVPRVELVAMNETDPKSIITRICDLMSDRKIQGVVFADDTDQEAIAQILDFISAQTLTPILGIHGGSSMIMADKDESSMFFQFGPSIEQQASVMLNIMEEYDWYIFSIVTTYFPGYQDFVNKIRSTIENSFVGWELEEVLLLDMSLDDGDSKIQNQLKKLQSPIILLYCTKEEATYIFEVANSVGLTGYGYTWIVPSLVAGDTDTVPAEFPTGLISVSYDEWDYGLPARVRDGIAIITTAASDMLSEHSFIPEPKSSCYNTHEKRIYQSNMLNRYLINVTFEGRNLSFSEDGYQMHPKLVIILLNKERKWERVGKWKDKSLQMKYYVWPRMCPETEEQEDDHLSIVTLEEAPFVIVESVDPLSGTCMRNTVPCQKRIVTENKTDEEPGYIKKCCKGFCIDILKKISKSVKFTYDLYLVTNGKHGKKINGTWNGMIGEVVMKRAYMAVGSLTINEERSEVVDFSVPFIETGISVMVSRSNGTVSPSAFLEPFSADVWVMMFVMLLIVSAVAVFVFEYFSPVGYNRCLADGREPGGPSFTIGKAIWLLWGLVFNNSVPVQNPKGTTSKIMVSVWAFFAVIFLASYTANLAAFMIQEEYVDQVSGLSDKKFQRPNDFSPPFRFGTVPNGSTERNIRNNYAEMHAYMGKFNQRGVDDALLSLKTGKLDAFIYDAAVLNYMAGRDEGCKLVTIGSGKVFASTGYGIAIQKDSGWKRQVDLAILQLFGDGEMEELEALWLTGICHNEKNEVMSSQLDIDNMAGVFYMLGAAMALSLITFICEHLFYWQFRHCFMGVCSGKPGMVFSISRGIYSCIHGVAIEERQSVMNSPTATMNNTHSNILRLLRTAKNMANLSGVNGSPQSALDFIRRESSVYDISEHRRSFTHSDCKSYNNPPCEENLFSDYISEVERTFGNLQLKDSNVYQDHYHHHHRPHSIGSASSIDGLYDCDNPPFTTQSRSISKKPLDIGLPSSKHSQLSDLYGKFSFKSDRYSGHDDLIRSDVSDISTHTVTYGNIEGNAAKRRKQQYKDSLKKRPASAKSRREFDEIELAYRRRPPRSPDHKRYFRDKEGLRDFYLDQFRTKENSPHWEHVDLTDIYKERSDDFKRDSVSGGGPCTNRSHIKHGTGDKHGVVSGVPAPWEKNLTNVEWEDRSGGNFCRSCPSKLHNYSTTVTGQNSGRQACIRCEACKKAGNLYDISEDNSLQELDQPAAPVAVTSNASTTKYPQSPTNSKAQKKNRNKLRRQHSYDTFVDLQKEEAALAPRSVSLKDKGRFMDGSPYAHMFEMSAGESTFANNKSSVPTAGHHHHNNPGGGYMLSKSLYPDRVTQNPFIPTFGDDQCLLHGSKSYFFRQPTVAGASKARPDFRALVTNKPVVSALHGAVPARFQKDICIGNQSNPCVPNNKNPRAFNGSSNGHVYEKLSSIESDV

| SMILES | Conclusion [1] | % 1 mM Glycine [1] | Conclusion [2] | % 1 mM Glycine [2] | Conclusion [3] | % 1 mM Glycine [3] | Conclusion [4] | % 1 mM Glycine [4] | analgesic effect in the Bennett model [5] |
| --- | --- | --- | --- | --- | --- | --- | --- | --- | --- |
| CC(C)C(=O)N1CCC[C@@]12CN([C@H](C(N)=O)[C@@H](C)O)C2=O [Compound Z, (2S,3R)-3-hydroxy-2-((S)-5-isobutyryl-1-oxo-2,5-diazaspiro[3.4]octan-2-yl)butanamide] | WT2B agonist | 70.49% | WT2A agonist | 42.5% | agonist | 65.32% | WT2C agonist | 47.76% | – |
| CC(C)C(=O)N1CCC[C@]12CN([C@H](C(N)=O)[C@@H](C)O)C2=O [Compound Y, (2S,3R)-3-hydroxy-2-((R)-5-isobutyryl-1-oxo-2,5-diazaspiro[3.4]octan-2-yl)butanamide] | WT2B agonist | 70.74% | WT2A agonist | 61.76% | agonist | 54.85% | WT2C agonist | 64.24% | – |
| C[C@@H](O)[C@@H](C(N)=O)N1C[C@]2(CCCN2C(=O)OC(C)(C)C)C1=O [Compound W, tert-butyl (R)-2-((2S,3R)-1-amino-3-hydroxy-1-oxobutan-2-yl)-1-oxo-2,5-diazaspiro[3.4]octane-5-carboxylate] | WT2B agonist | 53.09% | WT2A agonist | 18.33% | agonist | 66.72% | WT2C agonist | 67.5% | – |
| NCC1(CC(=O)O)CCCCC1 [gabapentin, reference compound] | – | – | – | – | – | – | – | – | only produced an analgesic effect 1 h post-dosing |
| C[C@@H](O)[C@@H](C(N)=O)N1C[C@@]2(CCCN2C(=O)OC(C)(C)C)C1=O [Compound X, tert-butyl (S)-2-((2S,3R)-1-amino-3-hydroxy-1-oxobutan-2-yl)-1-oxo-2,5-diazaspiro[3.4]octane-5-carboxylate] | WT2B agonist | 59.55% | WT2A agonist | 41.04% | agonist | 93.58% | WT2C agonist | 59.73% | – |

Source: patent publication US10196401B2, “Spiro-lactam NMDA receptor modulators and uses thereof” (Aptinyx Inc., priority 2016, dated 2019)
